Experimental data: paper PMC4977052, “On the Utility of ToxCast™ and ToxPi as Methods for Identifying New Obesogens” (Environmental Health Perspectives, 2016)
Where “and” joins values, the source holds several entries; their conditions need not be identical. Identical values can stand only once. Like-named read-outs stand apart in the source and are kept apart here.

Legend:
[1] = system: LXRβ; set-up: method as in Knudsen et al. 2011; conditions: ToxCast Phase I 2011 release; NA = not active; ref Knudsen et al. 2011; read-out: ATGT LXRβ AC50; cited from earlier work
[2] = system: 3T3-L1 preadipocytes; test: 3T3-L1 adipogenesis assay (lipid accumulation, adipogenic gene expression); format: cell-based; conditions: 0.02-20 μM, 5 days after MDI induction
Method: 3T3-L1 cells (ATCC) were maintained in high-glucose DMEM supplemented with 10% fetal bovine serum, 2 mM L-glutamine, 50 IU/mL penicillin, and 50 μg/mL streptomycin. A total of 2 × 10^4 cells per well were seeded in 12-well plates. After 48 hr, cells were exposed to the adipogenic cocktail MDI (500 μM isobutylmethylxanthine, 0.25 nM dexamethasone and 5 μg/mL insulin), 8 μg/mL biotin and 8 μg/mL pantothenate for 2 days. Induction media was removed and cells were exposed to test chemicals during 5 days, replacing the media every 2 days. Rosiglitazone (ROSI) and tributyltin (TBT) were used as positive controls at 100 nM and 50 nM final concentrations, respectively. All ToxCast™ chemicals were tested at 0.02, 0.2, 2, and 20 μM, and DMSO concentration was maintained at 0.1% across all treatments. If the chemical was toxic at 20 μM, we repeated the experiment at 10 μM.
Cells were either fixed in 3.7% formaldehyde in phosphate-buffered saline (PBS) for 30 min at room temperature (RT) for lipid quantitation, or homogenized in TriPure (Roche, Mannheim, Germany) for gene expression analysis. For lipid quantitation, fixed cells were washed twice with PBS and maintained in PBS overnight at 4°C to release residual phenol red. Background of cells were measured prior to staining. Cells were stained with 1 μg/mL Nile red (CAS No. 7385-67-3) (to detect lipid accumulation) and 1 μg/mL Hoechst 33342 (ThermoFisher Scientific) (to detect nuclei as a surrogate for cell number) in PBS for 15 min in the dark at RT and washed twice with PBS. […] Background values of Hoechst and Nile red were subtracted from the RFUs after staining and the ratio RFUNile Red:RFUHoechst was calculated. Data are represented as mean ± SEM. Total RNA was isolated using TriPure (Roche) as recommended by the manufacturer. Reverse transcription and quantitative real-time RT-PCR (QPCR) were performed using Transcriptor RT and SYBR® Green Master Mix (Roche). cDNA was quantitated in a LightCycler® 480 System (Roche Diagnostics, Basel, Switzerland) using primer sets listed in Table S4. Each primer set amplified a single band as determined by gel electrophoresis and melting curve analysis. QPCR data were analyzed using the 2^ΔΔCt method ([Livak and Schmittgen 2001]) relative to ribosomal protein 36b4, normalizing to 0.1% DMSO vehicle. Error bars represent the SEM from four to six biological replicates calculated using standard propagation of error ([Bevington and Robinson 2003]).

[3] = system: PPRE; set-up: method as in Knudsen et al. 2011; conditions: ToxCast Phase I 2011 release; NA = not active; ref Knudsen et al. 2011; read-out: ATGC PPRE AC50; cited from earlier work
[4] = system: LXRα; set-up: method as in Knudsen et al. 2011; conditions: ToxCast Phase I 2011 release; NA = not active; ref Knudsen et al. 2011; read-out: ATGT LXRα AC50; cited from earlier work
[5] = molecular target: T1, GAL4-mPPARγ (Mus musculus, UniProt P37238); test: GAL4-mPPARγ activation, transient transfection luciferase reporter in COS7 cells; format: cell-based
T1 construct: expressed in transfected cells; host or cells: COS7
T1 sequence (P37238 with tags, fused parts or gaps limits assumed): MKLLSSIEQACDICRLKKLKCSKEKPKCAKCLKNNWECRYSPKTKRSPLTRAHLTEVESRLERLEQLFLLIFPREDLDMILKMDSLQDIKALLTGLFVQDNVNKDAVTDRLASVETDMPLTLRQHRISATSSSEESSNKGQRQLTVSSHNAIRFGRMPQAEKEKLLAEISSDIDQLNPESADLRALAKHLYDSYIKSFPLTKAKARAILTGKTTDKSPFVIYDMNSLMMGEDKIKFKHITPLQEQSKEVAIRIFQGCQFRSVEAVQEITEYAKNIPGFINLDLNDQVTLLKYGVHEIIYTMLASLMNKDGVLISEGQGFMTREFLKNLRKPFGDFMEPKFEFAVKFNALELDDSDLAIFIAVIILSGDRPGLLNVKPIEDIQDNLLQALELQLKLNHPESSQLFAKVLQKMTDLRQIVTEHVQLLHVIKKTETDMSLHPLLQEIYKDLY

[6] = system: PPARγ; set-up: method as in Filer et al. 2014; conditions: ref Filer et al. 2014, cited from earlier work; for AC50: PPARγ, NA = not active, read-out: NCGC Antag. AC50, 2014 Release
[7] = system: PPARγ; conditions: NA = not active, cited from earlier work
[8] = system: COS7 cells; test: Cytotoxicity in transfected COS7 cells measured as decreased β-galactosidase activity; conditions: transfected COS7 cells, 24 hr
Method: (§1) pCMX-Gal4, pCMX-Gal4-mPPARγ, and pCMX-Gal4-hRXRα were previously described ([Grün et al. 2006]). Transient transfections were performed in COS7 cells as described ([Chamorro-García et al. 2012]). Briefly, COS7 cells were seeded at 15,000 cells per well in 96-well tissue culture plates in 10% calf bovine serum. The following day, cells were transfected in Opti-MEM at ~ 90% confluency. One microgram of CMX-GAL4 effector plasmid was co-transfected with 5 μg tk-(MH100)4-luciferase reporter and 5 μg of CMX-β-galactosidase transfection control plasmids in Opti-MEM® using Lipofectamine® 2000 reagent (Invitrogen™ Life Technologies, Carlsbad, CA, USA), following the manufacturer’s recommended protocol. All chemicals were solvated in dimethyl sulfoxide (DMSO). After overnight incubation, the medium was replaced with Dulbecco’s Modified Eagle Medium (DMEM; HyClone, Logan, UT, USA), 10% resin charcoal stripped fetal bovine serum (FBS) plus ligands at concentrations indicated in the figure legends for an additional 24 hr. DMSO concentration was maintained at 0.05% across all chemical treatments. Cells were lysed and assayed for luciferase and β-galactosidase activity as previously described ([Forman et al. 1995]). All transfections were performed in triplicate and reproduced in multiple experiments. Data are reported as fold induction or reduction over vehicle ([…]) controls ± SEM (standard error of the mean) using standard propagation of error ([Bevington and Robinson 2003]). […] The EC50, EC10, IC50, and IC10 values from NCGC and ToxCast™ are reported from gain AC50 and AC10 values in the ToxCast™ 2014 release ([Filer et al. 2014]).
(§2) Figure 1 ToxCast™ Chemical Activity on PPARγ. The ability of a graded dose series of ToxCast™ chemicals to (A) activate or (B) antagonize GAL4-mPPARγ was tested in transiently transfected COS7 cells. (A, B) Data points are averages of triplicate transfections (three biological replicates). […] Data are depicted as (A) fold induction or (B) reduction over vehicle (0.05% DMSO) controls ± SEM. (A) ToxCast™ chemicals were tested in 3-fold serial dilutions from 100 μM through 0.137 μM, with the final data point being 0.05% DMSO. Rosiglitazone serves as a positive control activator. (B) ToxCast™ chemicals were tested in 3-fold serial dilutions from 100 μM, in competition with 50 nM rosiglitazone (Rosi). […] (C) EC50, EC10, IC50, and IC10 values calculated from A and B are reported and compared to commercial assays (see Figure S1). Note: ATG, Attagene GAL-PPARγ activation assay; NCGC, GeneBLAzer® agonist (EC values) or antagonist (IC values) assays. Triphenyltin was previously published ([Kanayama et al. 2005]).

[9] = molecular target: T1, GAL4-mPPARγ; test: GAL4-mPPARγ antagonism in competition with 50 nM rosiglitazone, transiently transfected COS7 cells; format: cell-based
Method: as §1, §2

[10] = system: Human PPARγ; conditions: PPARγ direct binding, NA = not active, cited from earlier work
[11] = system: SREBP; set-up: method as in Knudsen et al. 2011; conditions: ToxCast Phase I 2011 release; NA = not active; ref Knudsen et al. 2011; read-out: ATGC SREBP AC50; cited from earlier work
[12] = system: RXRα; conditions: ToxCast Phase I 2011 release; NA = not active; ref Knudsen et al. 2011; read-out: NCGC RXRα AC50; cited from earlier work
[13] = system: C/EBP; set-up: method as in Knudsen et al. 2011; conditions: ToxCast Phase I 2011 release; NA = not active; ref Knudsen et al. 2011; read-out: ATGC CEBP AC50; cited from earlier work
[14] = system: LXRβ; set-up: method as in Knudsen et al. 2011; conditions: ToxCast Phase I 2011 release; NA = not active; ref Knudsen et al. 2011; read-out: NCGC LXR AC50; cited from earlier work
[15] = Cos-7 transient transfection, PPARγ activation or antagonism assays (Table 1, Table S6)
[16] = Cos-7 transient transfection, PPARγ or RXRα activation assays (Table 2)
[17] = PPARγ, ref Filer et al. 2014, read-out: ATG Agonist AC50, 2014 Release
[18] = PPARγ, ref Knudsen et al. 2011, read-out: ATG Agonist AC50, 2011 Release
[19] = ref Filer et al. 2014, read-out: NVS Agonist AC50, 2014 Release
[20] = ToxCast Phase I 2011 release, ref Knudsen et al. 2011, read-out: ATGT PPARγ AC50

SMILES	AC50 [1] [µM]	Adipogenesis 3T3-L1 (result in words) [2]	AC50 [3] [µM]	AC50 [4] [µM]	Activation COS7 (result in words), ToxPi chemicals [5, 16]	AC50 [6] [µM]	AC50 [7, 17]	AC50 [7, 18] [µM]	AC50 [7, 20] [µM]	AC50 [13] [µM]	further results
CCc1nn(C)c(C(=O)NCc2ccc(C(C)(C)C)cc2)c1Cl [Tebufenpyrad]	0.46	Negative	0.83	0.36	Inactive	23.1	2.6 µM	4.9			Activation COS7 (result in words), ToxCast PPARγ list [5, 15]: Inactive
CCc1cccc(CC)c1N(COC)C(=O)CCl [Alachlor]		Negative				3.2	2 µM	3.7			Concentration at which cytotoxicity (decreased β-galactosidase activity) was observed [8]: 100 µM; Activation of GAL4-PPARγ (text) ([5]; COS7, 100 μM through 0.137 μM): did not activate PPARγ; AC50 ([9]; Activation AC50 (PPARγ antagonists), Cos-7 transient transfection, competition with 50 nM rosiglitazone): 4.48 µM; Antagonism of PPARγ ([9]; COS7, competition against 50 nM rosiglitazone): weak antagonists; IC50 ([9]; COS7, in competition with 50 nM rosiglitazone): 4.48 µM; PPARγ antagonists: IC10, Fig 1B ([9]; COS7, in competition with 50 nM rosiglitazone, computed from IC50): 0.78 µM; Activation COS7 (result in words): PPARγ antagonist ([9]; Cos-7 transient transfection, competition with 50 nM rosiglitazone): PPARγ antagonist; PPARγ antagonists: IC10, NCGC ([6]; AC10, ToxCast 2014 release): 0.15 µM; IC50 ([6]; read-out: PPARγ antagonists: IC50, NCGC, gain AC50, ToxCast 2014 release): 3.19 µM; AC50 [10, 19]: 24.9 µM; AC50 ([10]; ref Knudsen et al. 2011, read-out: NVS Agonist AC50, 2011 Release): 43 µM
C[Si](Cn1cncn1)(c1ccc(F)cc1)c1ccc(F)cc1 [Flusilazole]		Positive	46		Inactive				51		AC50 [11]: 20 µM
C=CCOC(Cn1ccnc1)c1ccc(Cl)cc1Cl (stereo not shown) [Imazalil]		Negative			Inactive				73		AC50 [12]: 3.2 µM
O=C(Nc1ccccc1)Nc1ccnc(Cl)c1 [Forchlorfenuron]	37	Positive	26		Inactive				46	40	
Cc1nn(C)c(Oc2ccccc2)c1C=NOCc1ccc(C(=O)OC(C)(C)C)cc1 [(Z,E)-Fenpyroximate]	8.8	Negative	0.065	4.3	Inactive	35.9	2.4 µM	8.6			Activation COS7 (result in words), ToxCast PPARγ list [5, 15]: Inactive; AC50 [14]: 6.9 µM
C#CCC1=C(C)C(OC(=O)C2C(C=C(C)C)C2(C)C)CC1=O (stereo not shown) [Prallethrin]		Negative	8.4						44	29	Activation COS7 (result in words), ToxPi chemicals [5]: Inactive; AC50 [11]: 33 µM; AC50 [14]: 16.7 µM
Cc1ccc(-c2c(Cl)nc(C#N)n2S(=O)(=O)N(C)C)cc1 [Cyazofamid]	13	Negative	12	11		32.3	10.1 µM and 9.4 µM	11		8.7	Activation COS7 (result in words), ToxCast PPARγ list [5]: Inactive; Activation COS7 (result in words), ToxPi chemicals [5]: Inactive; AC50 [10, 19]: 9.6 µM
